Each block holds one compound with its values, some of them ahead of it.
Columns and labels:
[1] = molecular target: T1, Melatonin receptor type 1A (Homo sapiens, UniProt P48039); test: Binding affinity to MT1 receptor (unknown origin) expressed in HEK cells; format: cell-based, HEK293
[2] = molecular target: T1, Melatonin receptor type 1A; test: Displacement of [125I]2-iodomelatonin from human MT1 receptor expressed in CHO cells; format: cell-based
Homo sapiens [3] = species: Homo sapiens; test: Selectivity ratio of Ki for MT2 receptor (unknown origin) to Ki for MT1 receptor (unknown origin)
[4] = molecular target: T2, Melatonin receptor type 1B (Homo sapiens, UniProt P49286); test: Binding affinity to MT2 receptor (unknown origin) expressed in HEK cells; format: cell-based, HEK293
T2 sequence (P49286 whole entry): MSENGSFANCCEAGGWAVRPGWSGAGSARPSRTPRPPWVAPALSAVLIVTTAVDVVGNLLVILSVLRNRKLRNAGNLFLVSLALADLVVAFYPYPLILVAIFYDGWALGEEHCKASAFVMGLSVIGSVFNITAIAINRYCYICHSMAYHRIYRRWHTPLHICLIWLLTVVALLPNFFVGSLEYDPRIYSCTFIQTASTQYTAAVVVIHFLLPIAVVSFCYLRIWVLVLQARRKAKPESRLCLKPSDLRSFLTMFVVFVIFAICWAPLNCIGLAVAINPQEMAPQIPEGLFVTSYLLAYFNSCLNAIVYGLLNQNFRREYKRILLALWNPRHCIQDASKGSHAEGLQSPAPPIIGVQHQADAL

[5] = molecular target: T2, Melatonin receptor type 1B; test: Displacement of [125I]2-iodomelatonin from human MT2 receptor expressed in CHO cells; format: cell-based
Homo sapiens [6] = species: Homo sapiens; test: Selectivity ratio of Ki for human recombinant MT1 receptor to Ki for human recombinant MT2 receptor
[7] = molecular target: T1, Melatonin receptor type 1A; test: biochemical
Homo sapiens [8] = species: Homo sapiens; test: Selectivity ratio of Ki for MT1 receptor (unknown origin) to Ki for MT2 receptor (unknown origin)
[9] = molecular target: T1, Melatonin receptor type 1A; test: Antagonist activity at MT1 receptor (unknown origin) assessed as cAMP accumulation; format: functional
[10] = molecular target: T2, Melatonin receptor type 1B; test: Agonist activity at MT2 receptor (unknown origin) expressed in mouse NIH3T3 cells assessed as inhibition of forskolin-induced cAMP accumulation; format: functional, cell-based
[11] = molecular target: T1, Melatonin receptor type 1A; test: Agonist activity at MT1 receptor (unknown origin) expressed in mouse NIH3T3 cells assessed as inhibition of forskolin-induced cAMP accumulation; format: functional, cell-based
Homo sapiens [12] = species: Homo sapiens; test: Selectivity ratio of Ki for human MT2 receptor to Ki for human MT1 receptor
[13] = Partial agonist activity at melatonin receptor in chicken brain membranes assessed as cAMP level; format: cell membranes, Gallus gallus, Membrane
[14] = molecular target: T2, Melatonin receptor type 1B; test: Displacement of [125I]2-iodomelatonin from human recombinant MT2 receptor expressed in African green monkey COS7 cells; format: cell-based, COS-7
[15] = molecular target: T2, Melatonin receptor type 1B; test: Antagonist activity at MT2 receptor (unknown origin) expressed in mouse NIH3T3 cells by [35S]GTPgammaS binding assay; format: functional
[16] = molecular target: T1, Melatonin receptor type 1A; test: Antagonist activity at MT1 receptor (unknown origin) expressed in mouse NIH3T3 cells by [35S]GTPgammaS binding assay; format: functional
[17] = molecular target: T1, Melatonin receptor type 1A; test: Binding affinity to MT1 receptor (unknown origin) expressed in HEK293 cells; format: cell-based
[18] = molecular target: T2, Melatonin receptor type 1B; test: Binding affinity to MT2 receptor (unknown origin) expressed in HEK293 cells; format: cell-based
CYP3A4 = CYP3A4 (Homo sapiens, UniProt P08684); test: Half life of the compound assessed as CYP3A4 (unknown origin)-mediated drug metabolism; format: ADME
[19] = molecular target: T2, Melatonin receptor type 1B; test: Displacement of [125I]2-iodomelatonin from MT2 receptor (unknown origin) expressed in HEK293 cells; format: cell-based

T1 sequence (P48039 whole entry): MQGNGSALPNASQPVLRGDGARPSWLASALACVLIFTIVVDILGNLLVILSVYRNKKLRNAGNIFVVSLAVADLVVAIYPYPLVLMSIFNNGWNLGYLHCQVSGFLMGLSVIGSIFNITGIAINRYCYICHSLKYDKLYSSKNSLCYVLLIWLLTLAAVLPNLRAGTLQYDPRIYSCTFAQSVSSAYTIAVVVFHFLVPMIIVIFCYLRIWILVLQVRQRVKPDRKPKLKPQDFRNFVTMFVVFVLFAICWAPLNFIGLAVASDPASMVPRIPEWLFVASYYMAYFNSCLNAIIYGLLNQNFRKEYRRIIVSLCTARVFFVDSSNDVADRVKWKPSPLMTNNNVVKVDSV
Sequence of CYP3A4 (P08684 whole entry): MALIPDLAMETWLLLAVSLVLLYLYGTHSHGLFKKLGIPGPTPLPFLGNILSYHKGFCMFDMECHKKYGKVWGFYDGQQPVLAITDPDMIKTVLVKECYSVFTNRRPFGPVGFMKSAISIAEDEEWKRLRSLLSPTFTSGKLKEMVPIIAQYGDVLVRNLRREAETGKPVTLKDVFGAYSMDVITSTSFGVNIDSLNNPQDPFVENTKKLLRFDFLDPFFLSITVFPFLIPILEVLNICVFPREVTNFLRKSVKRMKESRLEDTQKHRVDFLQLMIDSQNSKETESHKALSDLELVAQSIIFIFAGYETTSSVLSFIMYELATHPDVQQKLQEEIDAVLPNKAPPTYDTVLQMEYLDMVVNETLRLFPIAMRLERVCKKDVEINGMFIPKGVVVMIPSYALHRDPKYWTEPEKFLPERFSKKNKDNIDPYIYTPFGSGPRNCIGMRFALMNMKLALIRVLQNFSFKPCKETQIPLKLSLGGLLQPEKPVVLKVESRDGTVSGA

- Ratio Ki (Homo sapiens [6]): 330
- Ki [7]: 501 nM
Compound: CCC(=O)NC1Cc2ccccc2C(c2ccccc2)C1 (racemic)

- IC50 [9]: > 1000 nM
Compound: COc1cc2c(cc1OC)C(CC(c1ccccc1)c1ccccc1)N(C(C)=O)CC2 (stereo unspecified)

- Ratio Ki (Homo sapiens [12]): 54
- Ki [2]: 3.1 nM
- Ratio Ki (Homo sapiens [3]): 122
- Ki [5]: 167 nM
Compound: CC(=O)NCCc1cccc2ccc(OCCCCOc3ccc4cccc(CCNC(C)=O)c4c3)cc12

- Ratio Ki (Homo sapiens [12]): 10
- Ki [2]: 3.9 nM
- Ki [5]: 49 nM
Compound: CC(=O)NCCc1c[nH]c2ccc(OCCCc3ccccc3)cc12

- Ki [2]: 5.2 nM
- Ki [5]: 246 nM
Compound: CC(=O)NCCc1cccc2ccc(-c3ccc4cccc(CCNC(C)=O)c4c3)cc12

- Ki [13]: 2.4 nM
Compound: CCCC(=O)NCCCc1cccc2c1OCCO2

- Ratio Ki (Homo sapiens [6]): 132
Compound: CCCC(=O)NCCc1c2n(c3ccc(OC)cc13)CCCc1ccccc1-2

- Ratio Ki (Homo sapiens [12]): 35
Compound: O=C(NCCCc1cccc2nc(CCCCc3ccccc3)oc12)C1CC1

- Ki [15]: 1.3 nM
- Ki [16]: 27 nM
Compound: COc1ccc2c(c1)C(CNC(C)=O)Cc1ccccc1C2 (stereo unspecified)

- Ratio Ki (Homo sapiens [6]): 15
Compound: CC(=O)NCCc1c(Cc2ccccc2)[nH]c2ccccc12

- Ki [10]: 91.2 nM
Compound: CC(=O)NCCN(C)c1cccc(OCCCCc2ccccc2)c1

- Ratio Ki (Homo sapiens [6]): 60
- Ki [7]: 207 nM
- Ki [14]: 3.5 nM
Compound: COc1cc2[nH]cc(CCNC(C)=O)c2cc1OC

- half-life (CYP3A4): 20 min
Compound: COc1ccc2[nH]cc(CCNC(C)=O)c2c1 [MELATONIN]

- Ratio Ki (Homo sapiens [8]): 123
- Ki [19]: 0.33 nM
Compound: COc1cccc(Cc2oc3ccc(OC)cc3c2CCNC(C)=O)c1

Second part, the compound before the results:

Compound: CCCCCCOc1ccc2c(c1)C(CCNC(C)=O)CCO2 (stereo unspecified)
- Ki [1]: 1.2 nM
- Ki [2]: 3.4 nM
- Ratio Ki (Homo sapiens [3]): 25
- Ki [4]: 29 nM
- Ki [5]: 21.4 nM

Compound: COc1ccc2oc(Cc3ccccc3)c(CCNC(C)=O)c2c1
- Ratio Ki (Homo sapiens [8]): 23

Compound: C=CCC(=O)NCCc1c(Cc2cccc(OC)c2)oc2ccc(OC)cc12
- Ratio Ki (Homo sapiens [8]): 192

Compound: CCOC(=O)c1[nH]c2ccc(OC)c3c2c1[C@@H](CNC(C)=O)CC3
- Ki [10]: 0.29 nM
- Ki [11]: 0.18 nM

Compound: COc1cc2c(cc1OC)C(CCc1ccccc1)N(C(C)=O)CC2 (stereo unspecified)
- IC50 [9]: > 1000 nM

Compound: CC(=O)NCCc1c[nH]c2ccc(OCCCOc3ccccc3)cc12
- Ratio Ki (Homo sapiens [12]): 10
- Ki [2]: 7.9 nM
- Ki [5]: 87 nM

Compound: CC(=O)NCCc1cccc2ccc(OCCCOc3ccc4cccc(CCNC(C)=O)c4c3)cc12
- Ratio Ki (Homo sapiens [12]): 3
- Ki [2]: 3.9 nM
- Ki [5]: 149 nM

Compound: COc1cc2c(CCNC(C)=O)c(C)[nH]c2cc1Cl
- Ki [14]: 2.2 nM

Compound: COc1ccc2[nH]c(Cc3ccccc3)c(CCNC(C)=O)c2c1
- Ratio Ki (Homo sapiens [6]): 130

Compound: CCCNC(=O)CCCc1cccc2c1SCCO2
- IC50 [17]: 2.3 nM
- IC50 [18]: 6.7 nM

Compound: CCCC(=O)NCCc1c2n(c3ccc(OC)cc13)Cc1ccccc1-2
- Ratio Ki (Homo sapiens [6]): 89
